Where two headings read alike, the source gives them in different places. Ends that are not written are not given here.

What is called IC50 is the concentration needed to halve the response being measured.

For experiment [1], the target named is T1, porcine pancreatic α-amylase (Sus scrofa, UniProt P00690).
T1 construct: purchased Sigma-Aldrich (St. Louis, MO, USA)
T1 sequence (P00690 16-511): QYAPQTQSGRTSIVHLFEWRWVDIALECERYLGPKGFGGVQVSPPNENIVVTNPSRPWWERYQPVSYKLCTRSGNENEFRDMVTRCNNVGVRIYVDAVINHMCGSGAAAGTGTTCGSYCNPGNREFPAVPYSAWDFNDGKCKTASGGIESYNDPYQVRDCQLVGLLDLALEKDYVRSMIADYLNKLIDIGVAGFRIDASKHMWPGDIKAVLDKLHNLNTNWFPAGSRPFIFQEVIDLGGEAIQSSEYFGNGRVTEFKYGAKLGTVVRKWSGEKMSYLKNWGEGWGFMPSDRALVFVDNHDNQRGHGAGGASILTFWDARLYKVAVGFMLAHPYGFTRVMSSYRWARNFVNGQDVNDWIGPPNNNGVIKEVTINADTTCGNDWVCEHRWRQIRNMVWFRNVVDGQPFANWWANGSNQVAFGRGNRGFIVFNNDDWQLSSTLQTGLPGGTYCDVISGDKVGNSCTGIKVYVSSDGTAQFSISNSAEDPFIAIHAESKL
Put plainly: α-Amylase inhibition assay in vitro (starch/DNS). The experiment is classed as biochemical. The settings on record: synthetic peptides; enzyme 0.5 U/mL, starch 10 mg/mL, PBS pH 6.9–7.2; 20 min premix, 10 min at 37 °C; DNS, 540 nm; mean ± standard error of the mean, three parallels. The text has this: p-Nitrophenyl-α-D-glucopyranoside (pNPG) and soy protein isolate were obtained from Mackiln (Shanghai, China). DL-dithiothreitol (DTT), iodoacetamide (IAA), formic acid (FA), acetonitrile (ACN), methanol, and porcine pancreatic amylase (PPA) (>10 units/mg) were acquired from Sigma-Aldrich (St. Louis, MO, USA). α-Glucosidase (from Saccharomyces cerevisiae, 26.5 units/mg) and trypsin (from porcine pancreas, 250 units/mg) were obtained from Yuanye Biotech (Shanghai, China). DNS solution was purchased from Rhawn (Shanghai, China). Oligopeptides were prepared with LifeTein (Beijing, China). High-performance liquid chromatography (HPLC)-grade acetonitrile, methanol, and formic acid were obtained from Merck (Darmstadt, Germany). The other chemicals were of analytical grade.
Methods refer to Admassu’s and make appropriate modifications. The starch solution (10 mg/mL), enzyme solution (0.5 U/mL), and soybean peptide solution at different concentrations (5, 10, 15, 20, 25 mg/mL) were prepared, the solvent was PBS (pH 6.9–7.2). […] The absorbance was measured at 540 nm, and the α-amylase inhibition ratio was calculated according to Formula (1):(1) α−Amylase Inhibition Ratio=1−A1−A2/A3−A4×100% where A1, A2, A3, and A4 are the absorbance values of the sample, sample blank, negative control, and blank, respectively.

The next experiment has as its target α-glucosidase. Particulars: cited from earlier work. The text has this:
(§1) Peptides are obtained from the decomposition of proteins. Standard methods for preparing peptides in the food industry include enzymatic hydrolysis and microbial hydrolysis.

In the next experiment the target is α-amylase. The settings on record: cited from earlier work.
Source text: as §1

Where [2] appears, read: peptide from egg albumin, ref [19].
[3] abbreviates: peptide from Camellia seed cake, ref [15].

In experiment [1], LDQTPRVF gave an IC50 of 3.08 ± 0.15 mM.

As to “KLPGF [peptide segment identified in egg albumin]”, the IC50 at α-glucosidase (setting [2]) was 59.5 µM; on α-amylase (setting [2]) it was 120 µM. For the substance SRNPIYSN, the IC50 in experiment [1] came to 5.58 ± 0.13 mM.

Consider “GGSK [oligopeptide isolated from Porphyra spp]”, for which the “inhibition mode on α-amylase” value in the experiment with α-amylase (peptides from Porphyra spp., ref [11]) was “could still bind with the substrate after binding with α-amylase”. For “GPPGPA [identified from the skin collagen of the Chinese giant salamander]”, the “inhibition type on α-glucosidase” value in the experiment on α-glucosidase (peptide from skin collagen of Chinese giant salamander, ref [13]) was “competitive inhibitory effects”. On to “LLLLPSYSEF [identified from Camellia seed cake]”, for which, on α-glucosidase (setting [3]), the IC50 was 1110 µM and the “inhibition type on α-glucosidase” value is listed as “mixed inhibition”.

Values taken from publication PMC10743026, “Virtual Screening Technology for Two Novel Peptides in Soybean as Inhibitors of α-Amylase and α-Glucosidase” (Foods, 2023).
